In US20030073850A1, “4-Imidazole derivatives of benzyl and restricted benzyl sulfonamides, sulfamides, ureas, carbamates, and amides and their use” (priority 1998, published 2003) one finds Ki and melting point data, which are given here for 43 compounds.

Counter-ions that a name gives are not always drawn.

For the first data set, the target named is T1, α1b (hamster receptor expressed in mouse fibroblasts) (Mesocricetus auratus, UniProt P18841).
T1 construct: expressed in transfected cells; host or cells: mouse fibroblasts
T1 sequence (P18841 1-515): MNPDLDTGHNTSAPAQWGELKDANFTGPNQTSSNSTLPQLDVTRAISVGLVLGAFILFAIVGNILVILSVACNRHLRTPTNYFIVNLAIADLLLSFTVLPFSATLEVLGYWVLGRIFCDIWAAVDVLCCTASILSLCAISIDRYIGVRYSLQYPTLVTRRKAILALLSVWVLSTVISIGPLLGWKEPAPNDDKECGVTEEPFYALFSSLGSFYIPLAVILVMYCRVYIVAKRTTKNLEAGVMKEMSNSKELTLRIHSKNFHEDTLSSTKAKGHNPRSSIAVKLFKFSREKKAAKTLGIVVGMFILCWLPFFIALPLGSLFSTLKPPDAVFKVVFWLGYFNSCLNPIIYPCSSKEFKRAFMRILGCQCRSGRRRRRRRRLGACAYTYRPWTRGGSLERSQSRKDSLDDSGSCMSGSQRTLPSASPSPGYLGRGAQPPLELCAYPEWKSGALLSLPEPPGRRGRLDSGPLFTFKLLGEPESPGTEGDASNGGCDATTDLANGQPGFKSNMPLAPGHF
The experiment in a line: Radioligand binding, [3H]-prazosin, α1b. The settings on record: hamster receptor expressed in mouse fibroblasts, [3H]-prazosin; read-out: Radioligand Binding Ki α1b (Hamster). The method, then:
For purposes of discussing a, adrenoceptor subtypes, the IUPHAR convention of using lower case letters to define molecular clones and upper case letters to indicate pharmacologically defined adrenoceptors has been followed. Compounds of formula I were evaluated in radioligand binding assays specific for α1A (rat submaxillary gland), α1b (hamster receptor expressed in mouse fibroblasts) and α1d (rat receptor expressed in mouse fibroblasts) using [^3H]-prazosin as the radioligand as described in Knepper, et al. J. Pharm.
Consider `CS(=O)(=O)Nc1cccc2c1CCCCC2c1c[nH]cn1.O=C(O)/C=C\C(=O)O` (stereo not shown) [Example 38, N-[5-(1H-imidazol-4-yl)-6,7,8,9-tetrahydro-5H-benzo[a]cyclohepten-1-yl]methanesulfonamide, Maleate], for which the Ki – broadly, a dissociation constant, usually derived from enzyme kinetics or from competition with a known ligand – turned out to be 10 µM.

Turning to `CCCn1cnc(C2CCCc3c2ccc(O)c3NS(C)(=O)=O)c1.Cl` (stereo not shown) [Example 7, N-[2-hydroxy-5-(1-propyl-1H-imidazol-4-yl)-5,6,7,8-tetrahydro-1-naphthalenyl]methanesulfonamide, Hydrochloride], the inhibitory constant (Ki) stood at 100 µM.

In the case of `O=S(=O)(Nc1cccc2c1CCCC2c1c[nH]cn1)C1CC1` (stereo not shown) [Example 27, N-[5,6,7,8-tetrahydro-(1H-imidazol-4-yl)-1-naphthalenyl]cyclopropanesulfonamide, Maleate], the Ki stood at 10 µM.

On to `Cc1ccc(NS(C)(=O)=O)c2c1C(c1c[nH]cn1)CCC2.O=C(O)/C=C\C(=O)O` (stereo not shown) [Example 23, N-[5,6,7,8-tetrahydro-5-(1H-imidazol-4-yl)-4-methyl-1-naphthalenyl]methanesulfonamide, Maleate], for which the Ki was determined as 10 µM.

For the compound `CCn1cnc(C2CCCc3c2ccc(O)c3NS(C)(=O)=O)c1` (stereo not shown) [Example 6, N-[5-(1-ethyl-1H-imidazol-4-yl)-2-hydroxy-5,6,7,8-tetrahydro-1-naphthalenyl]methanesulfonamide, Hydrochloride], the inhibition constant Ki came out at 100 µM.

“N-[5,6,7,8-tetrahydro-5-(1H-imidazol-4-yl)-1-naphthalenyl]-2-methylethanesulfonamide, Maleate [Example 18]”: the inhibitory constant (Ki) was found to be 10 µM.

For the compound `O=C(O)/C=C\C(=O)O.O=S(=O)(CC(F)(F)F)Nc1cccc2c1CCCC2c1c[nH]cn1` (stereo not shown) [Example 20, N-[5,6,7,8-tetrahydro-5-(1H-imidazol-4-yl)-1-naphthalenyl]-2,2,2-trifluoroethanesulfonamide, Maleate], the Ki was found to be 10 µM.

On to `CCS(=O)(=O)Nc1ccc(Cl)c2c1CCCC2c1c[nH]cn1.O=C(O)/C=C\C(=O)O` (stereo not shown) [Example 42, N-[4-chloro-5-(1H-imidazol-4-yl)-5,6,7,8-tetrahydro-1-naphthalenyl]ethanesulfonamide, Maleate], for which the inhibition constant (Ki) came to 10 µM.

Turning to `CS(=O)(=O)Nc1ccc(Cl)c2c1CCCC2c1c[nH]cn1.O=C(O)/C=C\C(=O)O` (stereo not shown) [Example 43, N-[4-chloro-5-(1H-imidazol-4-yl)-5,6,7,8-tetrahydro-1-naphthalenyl]methanesulfonamide, Maleate], the Ki turned out to be 10 µM.

Test system in the next data set: not given
Assay: not given
Settings: not given
In the case of `CS(=O)(=O)Nc1c(O)ccc2c1CCCC2c1c[nH]cn1.Cl` (stereo not shown) [Example 2, N-[2-hydroxy-5-(1H-imidazol-4-yl)-5,6,7,8-tetrahydro-1-naphthalenyl]methanesulfonamide, Hydrochloride], the melting point (usually the temperature, or range, at which the solid turns liquid) was 135 to 137 °C.

`CCS(=O)(=O)Nc1cc(Cc2c[nH]cn2)ccc1F`: the melting point lay within 122 to 123 °C.

The compound `Cc1cc(Cc2c[nH]cn2)c(C)c(NS(C)(=O)=O)c1` registered a melting point of 197 to 199 °C.

As for `CS(=O)(=O)Nc1cccc2c1CCCCC2c1c[nH]cn1.O=C(O)/C=C\C(=O)O` (stereo not shown) [Example 38, N-[5-(1H-imidazol-4-yl)-6,7,8,9-tetrahydro-5H-benzo[a]cyclohepten-1-yl]methanesulfonamide, Maleate], the melting point was in the range of 162 to 164 °C.

The compound `Cl.Cn1cncc1C1CCCc2c1ccc(O)c2NS(C)(=O)=O` (stereo not shown) [Example 4, N-[2-hydroxy-5-(1-methyl-1H-imidazol-5-yl)-5,6,7,8-tetrahydro-1-naphthalenyl]methanesulfonamide, Hydrochloride] showed a melting point of 260 °C.

As for `CCCn1cnc(C2CCCc3c2ccc(O)c3NS(C)(=O)=O)c1.Cl` (stereo not shown) [Example 7, N-[2-hydroxy-5-(1-propyl-1H-imidazol-4-yl)-5,6,7,8-tetrahydro-1-naphthalenyl]methanesulfonamide, Hydrochloride], the melting point lay within 128 to 133 °C.

With `CCS(=O)(=O)Nc1cccc(Cc2c[nH]cn2)c1Cl`, the melting point was in the range of 182 to 184 °C.

In turn, `CS(=O)(=O)Nc1cccc2c1CCC=C2c1c[nH]cn1.O=C(O)/C=C\C(=O)O` [Example 47, N-[5-(1H-imidazol-4-yl)-7,8-dihydro-1-naphthalenyl]methanesulfonamide, Maleate] returned a melting point of 161 to 165 °C.

In turn, `O=S(=O)(CC(F)(F)F)Nc1cccc2c1OCCC2c1c[nH]cn1` (single isomer, unassigned) (as salt: maleic acid salt) [Example 88, 2,2,2-trifluoro-N-[4-(1H-imidazol-4-yl)-3,4-dihydro-2H-chromen-8-yl]ethanesulfonamide] returned a melting point of 173 to 176 °C.

In turn, `CCS(=O)(=O)Nc1cccc(Cc2c[nH]cn2)c1O.O=C(O)/C=C\C(=O)O` displayed a melting point of 155 to 157 °C.

In turn, `CCS(=O)(=O)Nc1ccc(C)c(Cc2c[nH]cn2)c1` returned a melting point of 194 to 196 °C.

The compound `CCS(=O)(=O)Nc1cc(Cc2c[nH]cn2)ccc1Cl` registered a melting point of 159 to 160 °C.

`Cc1c(Cc2c[nH]cn2)cccc1NS(C)(=O)=O.O=C(O)/C=C\C(=O)O` showed a melting point of 143 to 144 °C.

On to `CS(=O)(=O)Nc1cccc2c1CCC2c1c[nH]cn1.O=C(O)/C=C\C(=O)O` (stereo not shown) [Example 22, N-[1-(1H-imidazol-4-yl)-2,3-dihydro-1H-inden-4-yl]methanesulfonamide, Maleate], for which the melting point was in the range of 168 to 169 °C.

The compound `CC(c1cccc(NS(C)(=O)=O)c1)c1c[nH]cn1.O=C(O)/C=C\C(=O)O` (stereo not shown) had a melting point of 135 to 136 °C.

`Cc1nc(C2CCCc3c2ccc(O)c3NS(C)(=O)=O)c[nH]1.Cl` (stereo not shown) [Example 3, N-[2-hydroxy-5-(2-methyl-1H-imidazol-4-yl)-5,6,7,8-tetrahydro-1-naphthalenyl]methanesulfonamide, hydrochloride] came in with a melting point of 233 to 235 °C.

With `CCS(=O)(=O)Nc1cccc2c1CCCC2c1c[nH]cn1.O=C(O)/C=C\C(=O)O` (stereo not shown) [Example 12, N-[5-(1H-imidazol-4-yl)-5,6,7,8-tetrahydro-1-naphthalenyl]ethanesulfonamide Maleate], the melting point lay in the range of 129 to 132 °C.

The compound `CCS(=O)(=O)Nc1cc(Br)cc(Cc2c[nH]cn2)c1C` yielded a melting point of 202 to 204 °C.

As to `CCS(=O)(=O)Nc1cccc(Cc2c[nH]cn2)c1OC`, the melting point fell in the range of 185 to 186 °C.

In turn, `CCS(=O)(=O)Nc1cc(Cl)cc(Cc2c[nH]cn2)c1Cl` had a melting point of 182 to 184 °C.

Compound `CCS(=O)(=O)Nc1cc(C)cc(Cc2c[nH]cn2)c1C` came in with a melting point of 167 to 169 °C.

As to `COc1ccc2c(c1NS(C)(=O)=O)CCCC2c1c[nH]cn1.Cl` (stereo not shown) [Example 1, N-[5-(1H-imidazol-4-yl)-2-methoxy-5,6,7,8-tetrahydro-1-naphthalenyl]methanesulfonamide hydrochloride], the melting point fell in the range of 209 to 211 °C.

Turning to `CS(=O)(=O)Nc1cc(Cc2c[nH]cn2)ccc1O.Cl`, the melting point was in the range of 167 to 169 °C.

In the case of `Cc1ccc(NS(C)(=O)=O)c2c1C(c1c[nH]cn1)CCC2.O=C(O)/C=C\C(=O)O` (stereo not shown) [Example 23, N-[5,6,7,8-tetrahydro-5-(1H-imidazol-4-yl)-4-methyl-1-naphthalenyl]methanesulfonamide, Maleate], the melting point lay within 192 to 195 °C.

Take `CC(c1cccc(NS(C)(=O)=O)c1)c1c[nH]cn1.Cl` (stereo not shown): the melting point lay within 195 to 196 °C.

With `O=C(O)/C=C\C(=O)O.O=S(=O)(CC(F)(F)F)Nc1cccc(Cc2c[nH]cn2)c1`, the melting point lay in the range of 161 to 162 °C.

With `CS(=O)(=O)Nc1cccc2c1CCC[C@H]2c1c[nH]cn1` [Example 9, (+)-N-[(5R)-5-(1H-imidazol-4-yl)-5,6,7,8-tetrahydro-1-naphthalenyl]methanesulfonamide], the melting point fell in the range of 118 to 123 °C.

In turn, `CCS(=O)(=O)Nc1cccc(/C(=C/OC)c2c[nH]cn2)c1.O=C(O)/C=C\C(=O)O` [Example 46, N-{3-[(Z)-1-(1H-imidazol-4-yl)-2-methoxyethenyl]phenyl}ethanesulfonamide, Maleate] returned a melting point of 146 to 148 °C.

For the compound `O=C(O)/C=C\C(=O)O.O=S(=O)(CC(F)(F)F)Nc1cccc2c1CCCC2c1c[nH]cn1` (stereo not shown) [Example 20, N-[5,6,7,8-tetrahydro-5-(1H-imidazol-4-yl)-1-naphthalenyl]-2,2,2-trifluoroethanesulfonamide, Maleate], the melting point lay in the range of 138 to 140 °C.

`Cl.Cn1cnc(C2CCCc3c2ccc(O)c3NS(C)(=O)=O)c1` (stereo not shown) [Example 5, N-[2-hydroxy-5-(1-methyl-1H-imidazol-4-yl)-5,6,7,8-tetrahydro-1-naphthalenyl]methanesulfonamide Hydrochloride] showed a melting point of 256 to 258 °C.

The compound `CS(=O)(=O)Nc1ccc(F)c(Cc2c[nH]cn2)c1.O=C(O)/C=C\C(=O)O` showed a melting point of 146 to 147 °C.

As for `CCS(=O)(=O)Nc1cc(Cc2c[nH]cn2)ccc1C`, the melting point lay within 140 to 152 °C.

For `CS(=O)(=O)Nc1cccc2c1OCCC2c1c[nH]cn1.O=C(O)/C=C\C(=O)O` (stereo not shown) [Example 19, N-[4-(1H-imidazol-4-yl)-3,4-dihydro-2H-chromen-8-yl]methanesulfonamide, Maleate], the melting point fell in the range of 172 to 174 °C.

For `C=C(c1cccc(NS(C)(=O)=O)c1)c1c[nH]cn1` (as salt: maleic acid salt) [Example 92, N-{3-[1-(1H-imidazol-4-yl)vinyl]phenyl}methanesulfonamide], the melting point lay within 167 to 170 °C.

As for `CCC(O)(c1cccc(NS(=O)(=O)CC)c1)c1c[nH]cn1` (stereo not shown) [Example 55, N-[3-(1-hydroxy-1-(1H-imidazol-4-yl)propyl)phenyl]ethanesulfonamide], the melting point fell in the range of 120 to 124 °C.

Compound `CCS(=O)(=O)Nc1ccc(Cl)c2c1CCCC2c1c[nH]cn1.O=C(O)/C=C\C(=O)O` (stereo not shown) [Example 42, N-[4-chloro-5-(1H-imidazol-4-yl)-5,6,7,8-tetrahydro-1-naphthalenyl]ethanesulfonamide, Maleate] yielded a melting point of 151 to 155 °C.

Compound `CCS(=O)(=O)Nc1cc(Br)cc(Cc2c[nH]cn2)c1` gave a melting point of 194 to 196 °C.

On to `CS(=O)(=O)Nc1ccc(Cl)c2c1CCCC2c1c[nH]cn1.O=C(O)/C=C\C(=O)O` (stereo not shown) [Example 43, N-[4-chloro-5-(1H-imidazol-4-yl)-5,6,7,8-tetrahydro-1-naphthalenyl]methanesulfonamide, Maleate], for which the melting point is 175 to 178 °C.

`CCS(=O)(=O)Nc1c(C)ccc2c1CCCC2c1c[nH]cn1` (stereo not shown): the melting point is 196 to 199 °C.

As for `CCS(=O)(=O)Nc1cccc(C(C)c2c[nH]cn2)c1.O=C(O)/C=C\C(=O)O` (stereo not shown), the melting point fell in the range of 114 to 119 °C.
